The values that follow come from patent US6420563B1, “Small molecule modulators of G protein-coupled receptor six” (Arena Pharmaceuticals, Inc., priority 1998, dated 2002).

Experiment [1] concerns the target T1, GPR6:Gsα-Fusion Protein (Homo sapiens, UniProt P46095).
T1 construct: expressed in transfected cells
The experiment is described as follows: [35S]GTPγS membrane binding assay (Example 4A). Type of experiment: biochemical. The note with it: mean +/- standard deviation (number of assays in brackets); read-out: IC50 Values GTP Assay Example 4A. The method, then: The assay plates were then centrifuged at 400 rpm for 15 minutes at room temperature and then subsequently aspirated and counted in a scintillation counter.
Membranes expressing the GPCR6:Gsα-Fusion Protein (see Example 2) and for use in the direct identification of candidate compounds as inverse agonists, agonists or partial agonists were prepared as follows:
All materials were kept on ice throughout the procedure. Firstly, the media was aspirated from a confluent monolayer of cells, followed by rinse with 10 ml cold PBS, followed by aspiration. Thereafter, 5 ml of membrane Scrape Buffer was added to scrape cells; this was followed by transfer of cellular extract into 50 ml centrifuge tubes (centrifuged at 20,000 rpm for 17 minutes at 4° C.). Thereafter, the supernatant was aspirated and the pellet was resuspended in 30 ml Membrane Wash Buffer followed by centrifuge at 20,000 rpm for 17 minutes at 4° C. The supernatant was then aspirated and the pellet resuspended in Binding Buffer. This was then homogenized using a Brinkman polytron™ homogenizer (15-20 second bursts until the all material was in suspension). This is referred to herein as “Membrane Protein”.
Candidate compounds (Tripos, Inc., St. Louis, Mo.) were received in 96-well plates (these can be frozen at −80° C.). Membrane Protein (or membranes with expression vector excluding the GPR6:Gsα-Fusion Protein, as control), were homogenized briefly until in suspension. Protein concentration was then determined using the Bradford Protein Assay set forth above. […] Thereafter, 100 ul GDP Buffer was added to each well of a Wallac Scintistrip™ (Wallac). A 5 ul pin-tool was then used to transfer 5 ul of a candidate compound into such well (i.e., 5 ul in total assay volume of 200 ul is a 1:40 ratio such that the final screening concentration of the candidate compound is 10 uM). Again, to avoid contamination, after each transfer step the pin tool was rinsed in three reservoirs comprising water (1×), ethanol (1×) and water (2×)—excess liquid should be shaken from the tool after each rinse and dried with paper towels and kimwipes™. Thereafter, 50 ul of Membrane Protein was added to each well (a control well comprising membranes without the GPCR Fusion Protein is also utilized), and pre-incubated for 5-10 minutes at room temperature (the plates were covered with foil in that the candidate compounds obtained from Tripos are light sensitive). Thereafter, 50 ul of [^35S]GTPγS (0.6 nM) in Binding Buffer was added to each well, followed by incubation on a shaker for 60 minutes at room temperature (again, in this example, plates were covered with foil). The assay was then stopped by spinning of the plates at 4000 RPM for 15 minutes at 22° C. The plates were then aspirated with an 8 channel manifold and sealed with plastic plate covers. The plates were then read on a Wallac 1450 using setting “Prot. #37” (as per manufacturer instructions).
The initial or “primary” screen designed to directly identify, e.g., human GPR6 receptor inverse agonists, consisted of the membrane-based GTPγS binding assay of Example 4A utilizing membranes prepared from 293 stable cells. Candidate compounds directly identified as inhibiting receptor-mediated increases in GTPγS as set forth below were considered active “leads”.
It is preferred that following such direct identification, IC50 (inverse agonist) or EC50 (agonist) values be determined; those having ordinary skill in the art are credited with utilizing IC50 and EC50 assay protocols of choice. FIG. 4 provides a representative IC50 curve for compound ARE112 using the assay protocol of Example 4A.
For orientation: Binding of GTPγS marks nucleotide exchange on a G protein.

Experiment [2] deals with T2, GPR6 (Homo sapiens, UniProt P46095).
T2 construct: expressed in transfected cells; 293 cells are used elsewhere
T2 sequence (P46095 whole entry): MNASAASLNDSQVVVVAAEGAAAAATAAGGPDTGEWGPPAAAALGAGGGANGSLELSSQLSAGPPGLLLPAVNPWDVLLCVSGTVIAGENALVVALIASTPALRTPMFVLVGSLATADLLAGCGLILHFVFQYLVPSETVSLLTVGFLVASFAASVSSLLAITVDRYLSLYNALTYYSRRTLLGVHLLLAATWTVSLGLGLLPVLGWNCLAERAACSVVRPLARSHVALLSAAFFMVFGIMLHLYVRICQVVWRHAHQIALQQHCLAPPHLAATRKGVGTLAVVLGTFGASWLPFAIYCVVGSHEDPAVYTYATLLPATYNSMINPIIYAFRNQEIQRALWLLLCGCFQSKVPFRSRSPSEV
The experiment is described as follows: membrane-based cyclic AMP confirmation assay (Example 4C). Type of experiment: biochemical. As to conditions: mean +/- standard deviation (number of assays in brackets); read-out: IC50 Values Cyclic AMP Assay Example 4C. The text has this:
Using an independent assay approach to provide confirmation of a directly identified candidate compound as set forth above, it is preferred that a confirmation assay then be utilized. In this case, the preferred confirmation assay is membrane-based cyclic AMP (cAMP) assay.
A modified Flash Plate™ Adenylyl Cyclase kit (New England Nuclear; Cat. No. SMP004A) was utilized for confirmation of candidate compounds directly identified as inverse agonists and agonists to endogenous, constitutively activated orphan GPCRs in accordance with the following protocol.
Transfected stable cells were harvested approximately three days after transfection. Membranes were prepared by homogenization of suspended cells in buffer containing 20 mM HEPES, pH 7.4 and 10 mM MgCl2. Homogenization was performed on ice using a Brinkman Polytron™ for approximately 10 seconds. The resulting homogenate was centrifuged at 20,000 rpm for 20 minutes at 4° C. The resulting pellet was then resuspended in buffer containing 20 mM HEPES, pH 7.4 and 0.1 mM EDTA, homogenized for 10 seconds, followed by centrifugation at 20,000 rpm for 20 minutes at 4° C. The resulting pellet can be stored at −80° C. until utilized. On the day of direct identification screening, the membrane pellet is slowly thawed at room temperature, resuspended in buffer containing 20 mM HEPES, pH 7.4, 100 mM NaCl and 10 mM MgCL2, to yield a final protein concentration of 0.60 mg/ml (the resuspended membranes are placed on ice until use).
Candidate compounds identified as per above (if frozen, thawed at room temperature) were added to plate wells (3 μl/well; 12 μM final assay concentration), together with 50 μl Membrane Protein (30 μg/well) and 50 μl of Assay Buffer. This admixture was then incubated for 30 minutes at room temperature, with gentle shaking.
Following the incubation, 100 μl of Detection Buffer was added to each well, followed by incubation for 2-20 hours. Plates were subsequently aspirated and then counted in a Wallac MicroBeta™ plate reader using “Prot. #31” (as per manufacturer instructions).

Experiment [3] in a line: Food/water intake and body weight in 24-hour food deprived rats, oral gavage (PO). Type of experiment: in vivo, rat. The method, then: Based upon the in vivo data developed, oral bioavailability of compound ARE112 was determined. The compound was administered by oral gavage at doses ranging from 6.75 to 54 mg/kg. The data presented in FIGS. 9A and 9B support the conclusion that oral administration of ARE112 also decreases food intake in both food-deprived and non-food deprived rats. […] In FIG. 9A, rats were deprived 24 hours prior to oral administration of the compound. In this assay, the vehicle-treated rats at 2.5 hours consumed […] of food while injected rats; particularly rats administered with 27 and 54 mg/kg of ARE 112, ate about 6 and 4 grams, respectively. […] (See, FIG. 9A).
Several other GPR6 inverse agonists were also assessed under 24-hour food deprived conditions, with PO administration. The analogs listed below were tested at 200 μmol/kg, which is equivalent to 54 mg/kg. In addition, ARE114 was also assessed at […]. Data are summarized below in Table C:
In a second assay, tested under the same conditions, several other analogs were assessed at 100 μmol/kg.
In FIG. 10, rats were deprived 24 hours prior to oral administration of the compound. In this assay, analogs ARE130, ARE135, ARE136, and ARE140, were administered at a dose of 100 μmol/kg. Three analogs, particularly, ARE130, ARE136 and ARE140 evidenced a slow intake of food (e.g., about 1 to 1.5 grams every two hours) over an eight hour period post-administration; while the vehicle rat consumed about 2 to 2.5 grams food every two hours. Similar to the vehicle rat, analog ARE135, an opened ring structure, evidenced that over an eight hour period post-administration the rats increasingly consumed about 2.5 grams every two hours. (See, FIG. 10A). Furthermore, the body weight of the vehicle rat and administered rats with analog ARE135 gained about 19.5 grams. On the other hand, the closed ring structures evidenced a decrease in body weight gain as follows: ARE112-6 grams, ARE130-9 grams, ARE136-11 grams and ARE140-14 grams. See, FIG. 10C.

Where [4] appears, read: 100 μmol/kg PO, second assay, Table D, vehicle 19.25.

T1 sequence (P46095 with tags, fused parts or gaps): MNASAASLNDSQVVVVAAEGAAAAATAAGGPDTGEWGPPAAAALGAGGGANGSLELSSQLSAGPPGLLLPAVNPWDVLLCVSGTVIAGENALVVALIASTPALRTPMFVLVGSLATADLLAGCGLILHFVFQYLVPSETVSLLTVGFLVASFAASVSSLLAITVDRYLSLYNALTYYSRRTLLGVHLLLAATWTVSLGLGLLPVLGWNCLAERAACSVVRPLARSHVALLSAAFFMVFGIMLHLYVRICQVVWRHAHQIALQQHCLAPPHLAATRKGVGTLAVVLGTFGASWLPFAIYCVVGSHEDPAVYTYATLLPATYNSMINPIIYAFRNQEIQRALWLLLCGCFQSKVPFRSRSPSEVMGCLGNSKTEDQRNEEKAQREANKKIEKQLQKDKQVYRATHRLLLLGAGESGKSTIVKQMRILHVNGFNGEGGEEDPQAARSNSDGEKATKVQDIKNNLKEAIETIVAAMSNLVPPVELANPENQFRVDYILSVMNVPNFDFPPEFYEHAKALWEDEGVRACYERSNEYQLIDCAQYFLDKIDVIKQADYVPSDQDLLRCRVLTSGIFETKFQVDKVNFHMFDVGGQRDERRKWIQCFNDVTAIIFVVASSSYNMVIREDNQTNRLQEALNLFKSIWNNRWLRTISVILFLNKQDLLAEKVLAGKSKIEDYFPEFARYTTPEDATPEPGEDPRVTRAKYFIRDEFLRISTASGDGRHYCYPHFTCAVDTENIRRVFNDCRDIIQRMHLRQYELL

Regarding `O=C(N=C1SSC2=NCCN21)c1ccc(C(F)(F)F)cc1` [ARE116, N-(5,6-dihydro-3H-imidazo[2,1-c]-1,2,4-dithiazol-3-ylidene)-4-trifluoromethylbenzamide], the IC50 (commonly the concentration that gives 50% inhibition) in experiment [1] was 570 nM; in experiment [2] it was 170 nM.
On the same counts, the results for `O=C(NC(=S)N1CCNC1=S)c1cccnc1` [ARE155, N-(2-thioxo-imidazolidine-1-carbothioyl)-pyridine-3-carboxamide] are 6560 nM and 850 nM.
In the case of `COc1cccc(C(=O)NC(=S)N2CCNC2=S)c1` [ARE123, N-(2-thioxo-imidazolidine-1-carbothioyl)-3-methoxybenzamide], the IC50 was determined as 56000 nM in experiment [1] and 51000 nM in experiment [2].
With `O=C(/N=C1\SSC2=NCCN21)c1ccc2ccccc2c1` [ARE136], the “Cumulative Food Intake (g) (8 hr post administration)” value in experiment [3] (100 μmol/kg PO, second assay, Table D, vehicle 14.0) is recorded as 9.0 g. Moreover, in experiment [3] (setting [4]), the “Body Weight Gain (g) (6 hr post administration)” value was found to be 11.0 g and the “Cumulative Water Intake (g) (6 hr post administration)” value was found to be 15.25 g. The “water drunk less than the vehicle animal (FIG. 10B)” value in experiment [3] (100 μmol/kg oral) is roughly 4 grams. Besides, the “body weight gain (FIG. 10C)” value in experiment [3] (100 μmol/kg oral, vehicle about 19.5 grams) was 11 grams.
In the case of `O=C(N=C1SSC2=NCCN21)c1ccon1` [ARE150, N-(5,6dihydro-3H-imidazo[2,1-c]-1,2,4-dithiazol-3-ylidene)-isoxazole-3-carboxamide], the results for the IC50 in experiment [1] and in experiment [2] were 330 nM and 100 nM, respectively.
Taken in the same sequence, the figures for `O=C(NC(=S)N1CCNC1=S)c1cccs1` [ARE111, N-(2-thioxo-imidazolidine-1-carbothioyl)-thiophene-2-carboxamide] were 2790 nM and 1960 nM.
`Cc1noc(C)c1C(=O)/N=C1\SSC2=NCCN21` [ARE148]: the IC50 in experiment [1] was 460 nM; in experiment [2] it was 350 nM.
Taken in the same sequence, the figures for `O=C(NC(=S)N1CCNC1=S)c1cc2ccccc2s1` [ARE139, N-(2-thioxo-imidazolidine-1-carbothioyl)-benzothiophen-2-carboxamide] were 260 nM and 4520 nM.
With `O=C(/N=C1\SSC2=NCCN21)c1cccc2ccccc12` [ARE138, N-(5,6-dihydro-3H-imidazo[2,1-c]-1,2,4-dithiazol-3-ylidene)-naphthyl-1-carboxamide], the IC50 stood at 450 nM in experiment [1] and 130 nM in experiment [2].
Taken in the same sequence, the figures for `O=C(NC(=S)N1CCNC1=S)c1ccc(C(F)(F)F)cc1` [ARE115, N-(2-thioxo-imidazolidine-1-carbothioyl)-4-trifluoromethylbenzamide] were 1570 nM and 3650 nM.
Take `O=C(NC(=S)N1CCNC1=S)c1cccc2ccccc12` [ARE137, N-(2-thioxo-imidazolidine-1-carbothioyl)-naphthyl-1-carboxamide]: the IC50 in experiment [2] came out at 100000 nM.
Take `O=C(N=C1SSC2=NCCN21)c1ccco1` [ARE144, N-(5,6dihydro-3H-imidazo[2,1-c]-1,2,4-dithiazol-3-ylidene)furan-2-carboxamide]: the IC50 in experiment [1] is 250 nM; in experiment [2] it was 110 nM.
`Cc1cccc(C(=O)NC(=S)N2CCNC2=S)c1` [ARE125, N-(2-thioxo-imidazolidine-1-carbothioyl)-3-methylbenzamide]: the 50% inhibitory concentration (IC50) amounted to 3800 nM in experiment [1] and 120000 nM in experiment [2].
In the case of `O=C(NC(=S)N1CCNC1=S)c1cccc(F)c1` [ARE129, N-(2-thioxo-imidazolidine-1-carbothioyl)-3-fluorobenzamide], the IC50 in experiment [1] worked out at 3190 nM; in experiment [2] it was 2620 nM.
On the same counts, the results for `O=C(N=C1SSC2=NCCN21)c1ccc(F)cc1F` [ARE134, N-(5,6-dihydro-3H-imidazo[2,1-c]-1,2,4-dithiazol-3-ylidene)-2,4-difluorobenzamide] are 410 nM and 190 nM.
With `O=C(NC(=S)N1CCNC1=S)c1cnn(-c2ccc(Cl)cc2)c1C(F)(F)F` [ARE153, N-(2-thioxo-imidazolidine-1-carbothioyl)-2-(4-chlorophenyl)-3-(trifluoromethyl)pyrazole-4-carboxamide], the IC50 in experiment [1] came to 2460 nM.
With `O=C(NC(=S)N1CCNC1=S)c1ccccc1F` [ARE131, N-(2-thioxo-imidazolidine-1-carbothioyl)-2-fluorobenzamide], the IC50 in experiment [1] stood at 43000 nM.
Consider `CSc1ncccc1C(=O)NC(=S)N1CCNC1=S` [ARE154, N-(2-thioxo-imidazolidine-1-carbothioyl)-pyridine-2-methylthio-3-carboxamide], for which the IC50 in experiment [2] amounted to 80000 nM.
For `O=C(N=C1SSC2=NCCN21)c1cnn(-c2ccc(Cl)cc2)c1C(F)(F)F` [ARE152, N-(5,6dihydro-3H-imidazo[2,1-c]-1,2,4-dithiazol-3-ylidene)-2-(4-chlorophenyl)-3-(trifluoromethyl)pyrazole-4-carboxamide], the IC50 in experiment [1] was determined as 190 nM.
Consider `O=C(NC(=S)N1CCNC1=S)c1ccccc1` [ARE113, N-(2-thioxo-imidazolidine-1-carbothioyl)-benzamide], for which the 50% inhibitory concentration (IC50) in experiment [1] is 100000 nM.
